target: T1, CYP2A6 (Homo sapiens, UniProt P11509); test: Inhibition of CYP2A6 (coumarin) activity in pooled human liver microsomes, cocktail incubation; type: in vitro ADME; conditions: substrate coumarin 5 µM; pooled HLMs; read-out: IC50, P450 2A6
T1 construct: incubation mixtures containing pooled human liver microsomes (HLMs, XTreme 200, XenoTech); tissue XenoTech XTreme 200; host or cells: pooled human liver microsomes
T1 sequence (P11509 1-494): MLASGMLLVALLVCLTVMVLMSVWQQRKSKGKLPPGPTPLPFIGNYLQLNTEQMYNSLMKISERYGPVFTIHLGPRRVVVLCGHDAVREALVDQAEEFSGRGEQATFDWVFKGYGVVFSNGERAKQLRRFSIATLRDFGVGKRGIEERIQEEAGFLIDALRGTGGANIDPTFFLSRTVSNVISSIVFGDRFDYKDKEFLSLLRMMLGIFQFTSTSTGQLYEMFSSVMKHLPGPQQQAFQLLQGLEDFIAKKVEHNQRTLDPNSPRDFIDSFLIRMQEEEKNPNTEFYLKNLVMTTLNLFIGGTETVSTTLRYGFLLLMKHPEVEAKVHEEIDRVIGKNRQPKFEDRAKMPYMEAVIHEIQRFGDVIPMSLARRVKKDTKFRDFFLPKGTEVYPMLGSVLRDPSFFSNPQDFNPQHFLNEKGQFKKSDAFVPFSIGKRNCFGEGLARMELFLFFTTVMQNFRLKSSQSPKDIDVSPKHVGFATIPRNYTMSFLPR
Procedure: The inhibitory potential of the five biflavonoids on the metabolism of nine P450 probe substrates was evaluated using previously developed methods with minor modifications. Biflavonoids were dissolved in methanol. The final concentration of methanol in the incubation mixture was 1.0% (v/v). We used these P450 probe substrates: phenacetin for CYP1A2, coumarin for CYP2A6, bupropion for CYP2B6, amodiaquine for CYP2C8, diclofenac for CYP2C9, omeprazole for CYP2C19, dextromethorphan for CYP2D6, chlorzoxazone for CYP2E1 and midazolam for CYP3A (Table 1). The incubation mixtures containing pooled human liver microsomes (HLMs, XTreme 200, XenoTech), P450 probe substrates, and inhibitor (0~20 µM) were pre-incubated at 37 °C for 5 min. The concentration range of the inhibitor varied (0, 0.002, 0.005, 0.02, 0.05, and 0.2 µM for CYP2C8; 0, 0.02, 0.05, 0.2, 0.5, and 2 µM for CYP2C9; 0, 0.5, 2, 5, 10, and 20 µM for other P450 isoforms). After pre-incubation, a reduced nicotinamide adenine dinucleotide phosphate (NADPH) generation system containing 1 unit/ml G6PDH, 1.3 mM β- nicotinamide adenine dinucleotide phosphate (β- NADP^+), 3.3 mM MgCl2, and 3.3 mM G6P was added to initiate a reaction, and further incubated for 10 min at 37 °C. The reaction was stopped by adding 50 μL of ice-cold acetonitrile containing 7 nM trimipramine (internal standard, IS). After centrifugation at 18,000 g (5 min, 4 °C), aliquots of supernatants were analyzed by LC–MS/MS (Shimadzu LCMS 8060 system, Shimadzu, Kyoto, Japan). All microsomal incubations were conducted in triplicate.
All metabolites and the IS were separated on a Kinetex XB-C18 column (100 × 2.10 mm, 2.6 μm, 100 Å; Phenomenex, Torrance, CA, USA) and analyzed using a Shimadzu LCMS 8060 triple-quadrupole mass spectrometer coupled with a Nexera X2 ultra high-performance liquid chromatography system (Shimadzu, Kyoto, Japan) equipped with an electrospray ionization interface. The mobile phase consisted of 0.1% formic acid in water (A) and 0.1% formic acid in acetonitrile (B). The elution condition was set as 8% B (0–0.5 min), 8%→60% B (0.5–5 min), 60% B (5–6 min), 60%→8% B (6–6.1 min) and 8% B (6.1–9 min) for the analysis of metabolites of P450 probe substrates and set as 0%→40% B (0–1 min), 40%→50% B (1–5 min), 50%→0% B (5–5.1 min), and 0% B (5.1–8 min) for the analysis of metabolites of UGT probe substrates. The flow rate was 0.2 mL/min. Electrospray ionization was performed in positive-ion mode at 4000 V or in negative-ion mode at −3500 V. The optimum operating conditions were determined as follows: vaporizer temperature, 300 °C; capillary temperature, 350 °C; collision gas (argon) pressure, 1.5 mTorr. Quantitation was conducted in selected reaction monitoring (SRM) modes with the precursor-to-product ion transition for each metabolite (Table 1 and Table 2).
We analyzed the data with Shimadzu LabSolution LC–MS software. The IC50 values were calculated by WinNonlin software (Pharsight, Mountain View, CA, USA). The type of inhibition and the apparent kinetic parameters for inhibitory activity (Ki) were determined by following several criteria: visual inspection of Dixon plots, Lineweaver–Burk double reciprocal plots, and secondary plots of Lineweaver–Burk plots versus biflavonoid concentrations, the size of the sum of squares of the residuals, Akaike Information Criteria values, the S.E. and 95% confidence interval of the parameter estimates from the nonlinear regression analysis using the WinNonlin software. The models tested included competitive, competitive partial, noncompetitive, noncompetitive partial, uncompetitive, uncompetitive partial, and mixed-type inhibition.

| Compound | IC50 |
| --- | --- |
| O=c1cc(-c2ccc(O)c(-c3c(O)cc(O)c4c(=O)cc(-c5ccc(O)cc5)oc34)c2)oc2cc(O)cc(O)c12 [amentoflavone] | 11.9 µM |
| CC(C)(O)c1ccccc1CC[C@@H](SCC1(CC(=O)O)CC1)c1cccc(/C=C/c2ccc3ccc(Cl)cc3n2)c1 [montelukast, reference compound] | > 50 µM |
| O=C1CC(c2cc(-c3c(O)ccc4c(=O)cc(-c5ccc(O)cc5)oc34)c(O)cc2O)Oc2cc(O)cc(O)c21 (stereo not drawn) [selamariscina A] | 11.6 µM |
| O=c1cc(-c2ccc(O)c(-c3c(-c4ccc(O)cc4)oc4cc(O)cc(O)c4c3=O)c2)oc2cc(O)cc(O)c12 [taiwaniaflavone] | 10.6 µM |

Other lines, results leading:

| IC50 | Compound |
| --- | --- |
| > 20 µM | O=c1cc(-c2ccc(O)cc2)oc2c(-c3c(O)cc(O)c4c(=O)cc(-c5ccc(O)cc5)oc34)c(O)cc(O)c12 [cupressuflavone] |
| 11.8 µM | O=c1cc(-c2ccc(O)c(-c3c(O)cc4oc(-c5ccc(O)cc5)cc(=O)c4c3O)c2)oc2cc(O)cc(O)c12 [robustaflavone] |

Reference: publication PMC7238120, “Strong and Selective Inhibitory Effects of the Biflavonoid Selamariscina A against CYP2C8 and CYP2C9 Enzyme Activities in Human Liver Microsomes” (Pharmaceutics, 2020)
